Assay results: patent US20260109690A1, “HDAC6 INHIBITORS AND METHOD OF THEIR USE” (Baerenkraft Therapeutics, LLC., priority 2024, published 2026)
Where two headings read alike, the source gives them in different places.

Assays:
[1] = target: HDAC4 (Homo sapiens, UniProt P56524); test: HDAC selectivity panel: HDAC4; type: biochemical
[2] = target: HDAC9 (Homo sapiens, UniProt Q9UKV0); test: HDAC selectivity panel: HDAC9; type: biochemical
[3] = test system: acetyl-α-tubulin in SH-SY5Y neuroblastoma cells; test: ICC dose response of acetylated alpha-tubulin in SH-SY5Y neuroblastoma cells; type: cell-based; details: 24-hour treatment
Description: Cell Seeding: Seeded at 2,000 cells/well in 384-well plates 24-hours prior to compound treatment
Compound Treatment: 24-hour
HDAC6 inhibitor compounds tested (1 control and 6 experimental)
9-point dose-response curves for all compounds, starting at 30 μM with 3-fold serial dilutions
4 technical replicate wells per condition tested
Cells were seeded in 90 μL media. 10 μL of 10× compound solutions added to 90 μL media for 24-hours
Fixation: 4% PFA for 15 minutes (after removing all media and washing with DPBS+0.1% Tween-20)
Permeabilization: 0.1% Triton X-100 for 20 minutes
Primary antibody: acetyl-α-tubulin (Lys40/D20G3; Cell Signaling Technologies, #5335S) 1:1000 dilution in DPBS+5% goat serum+0.1% Tween-20, 1 hour at room temp on orbital shaker
Secondary antibody: Goat anti-Rabbit IgG (H+L) Highly Cross-Adsorbed Secondary Antibody, Alexa Fluor™ Plus 488, Catalog #A32731, 1:1000 dilution+Hoechst 33342, 1:10,000 dilution in DPBS+5% goat serum+0.1% Tween-20, 1 hour at room temp on orbital shaker
High-content imaging system: Image Xpress Micro Confocal from Molecular Devices […]
Integrated fluorescence intensity of acetyl-α-tubulin was calculated using an automated image-analysis algorithm in Meta Xpress software
Average intensity per cell was calculated by dividing the integrated fluorescence intensity by the number of nuclei. […]

[4] = Oral bioavailability and brain/CSF uptake study of compound I-8; type: in vivo, male Swiss albino mice
Description: Compound I-8 was evaluated for bioavailability, pharmacokinetics and brain/csf to plasma distribution in mouse plasma following oral and intravenous administration of compound I-8 in male Swiss albino mouse.
A total of 24 male Swiss albino mouse were allotted for the study, Animals were allotted to 2 groups containing 12 mice/group, on day of dosing all the animals were fasted 3 hours before dosing. The test formulation was administered as a single dose by intravenous and oral route via tail vein and oral gavage needle at a dose of 1 and 5 mg/kg with a dose volume of 5 and 10 mL/kg, respectively.
Approximately 0.1 mL of blood sample from each animal was collected via retro orbital at predetermined time points (3 animals/timepoint) in pre-labeled Eppendorf tubes containing anticoagulant. After blood collection at 2 h, 4 h and 6 h, CSF and whole brain was withdrawn, and brain tissue was homogenized as a terminal sampling. Blood samples were centrifuged at 10000 rpm for 5 min under refrigeration (2-4° C.) within 0.5 h to obtain plasma. The separated plasma samples were collected in pre labeled tubes within 60 min of separation and stored at −20° C. up to 24 h. Post 24 h sample collection, all plasma samples were transferred to deep freezer custodian to store below or at −70° C. until shipment.
Brain tissues were blotted and dried and then transferred to 15 mL falcon tubes. Initially all tissue samples were stored at −20±3° C. Later all brain tissue samples were homogenized with PBS at 1:4 ratio and the Brain homogenate was transferred to deep freezer (−70±10° C.) and stored until bioanalysis.
Mouse plasma, CSF and Brain homogenate concentrations were analyzed to quantify compound I-8 using a fit-for purpose LC-MS/MS method with LLOQ of 0.98 ng/mL. The PK parameters were evaluated using Phoenix WinNonlin® Ent-Version 8.3 by non-compartmental analysis.

[5] = Tg2576 study: body weight; type: in vivo; details: G3 Tg2576 mice, 50 mg/kg (80 mg/kg from day 36) p.o., in g (unit assumed)
Description: Compound I-16 (free base; purity of 98.77%) was tested in a vehicle of PEG 400 (30%), Tween 80 (2%), and water (68%) at a concentration of […]. Dose formulations were prepared every day prior to dose administration. Oral dosages of 50 mg/kg were used unless otherwise indicated. 80 mg/kg doses were similarly prepared at a concentration of 8 mg/mL Male mice aged 6 months were used. 30 total animals were used with 10 animals in each group and 3 groups total. Groups were separated according to the following parameters.
(§1) Mice were weighed and randomized into groups. All the test formulations were freshly administered to respective animals of each group as per body weight. Basal behavior of the animals was recorded and analyzed in open field, Y-Maze, and EPM. Post basal behavior, animals were treated with compound I-16 for the duration of 3 months (i.e., from 6 months until 9 months). During the treatment duration, animals were subjected to different behavioral tests such as OFT, Y-maze, and EPM at 7, 8 and 9 months. At the end of experiments (i.e., at 9 months) animals were subjected to Morris water maze test.

[6] = test system: Tg2576 AD Disease Mice; test: Tg2576 study: Morris water maze test; type: in vivo; details: G3 Tg2576 mice, 50 mg/kg then 80 mg/kg from day 36 p.o.; 9th month, probe test
Description: as §1
Animals were subjected to MWM to test spatial working memory. Animals were subjected to habituation, acquisition, and probe trial phase. On day 0, animals were habituated to the Morris water maze tank filled with water for a duration of 90 seconds. During the acquisition phase from day 1 to 4, animals were allowed to swim or search the hidden platform for a duration of 60 seconds. Animals were subjected to a total of 4 trials from 4 different positions each day. On the day of the probe test, animals were allowed to swim for a duration of 60 seconds without platform and time spent in the target quadrant was recorded. During the acquisition phase, latency to reach the platform was calculated.

[7] = Mice PK studies of compound I-16; type: in vivo
[8] = male, Swiss albino, mouse, plasma, G1, intravenous 1 mg/kg
[9] = male, Swiss albino, mouse, plasma, G2, oral 5 mg/kg
[10] = male, Swiss albino, G1, intravenous 1 mg/kg, mouse plasma
[11] = male, Swiss albino, G2, oral 5 mg/kg, mouse plasma

HDAC9, sequence (Q9UKV0 whole entry, species assumed): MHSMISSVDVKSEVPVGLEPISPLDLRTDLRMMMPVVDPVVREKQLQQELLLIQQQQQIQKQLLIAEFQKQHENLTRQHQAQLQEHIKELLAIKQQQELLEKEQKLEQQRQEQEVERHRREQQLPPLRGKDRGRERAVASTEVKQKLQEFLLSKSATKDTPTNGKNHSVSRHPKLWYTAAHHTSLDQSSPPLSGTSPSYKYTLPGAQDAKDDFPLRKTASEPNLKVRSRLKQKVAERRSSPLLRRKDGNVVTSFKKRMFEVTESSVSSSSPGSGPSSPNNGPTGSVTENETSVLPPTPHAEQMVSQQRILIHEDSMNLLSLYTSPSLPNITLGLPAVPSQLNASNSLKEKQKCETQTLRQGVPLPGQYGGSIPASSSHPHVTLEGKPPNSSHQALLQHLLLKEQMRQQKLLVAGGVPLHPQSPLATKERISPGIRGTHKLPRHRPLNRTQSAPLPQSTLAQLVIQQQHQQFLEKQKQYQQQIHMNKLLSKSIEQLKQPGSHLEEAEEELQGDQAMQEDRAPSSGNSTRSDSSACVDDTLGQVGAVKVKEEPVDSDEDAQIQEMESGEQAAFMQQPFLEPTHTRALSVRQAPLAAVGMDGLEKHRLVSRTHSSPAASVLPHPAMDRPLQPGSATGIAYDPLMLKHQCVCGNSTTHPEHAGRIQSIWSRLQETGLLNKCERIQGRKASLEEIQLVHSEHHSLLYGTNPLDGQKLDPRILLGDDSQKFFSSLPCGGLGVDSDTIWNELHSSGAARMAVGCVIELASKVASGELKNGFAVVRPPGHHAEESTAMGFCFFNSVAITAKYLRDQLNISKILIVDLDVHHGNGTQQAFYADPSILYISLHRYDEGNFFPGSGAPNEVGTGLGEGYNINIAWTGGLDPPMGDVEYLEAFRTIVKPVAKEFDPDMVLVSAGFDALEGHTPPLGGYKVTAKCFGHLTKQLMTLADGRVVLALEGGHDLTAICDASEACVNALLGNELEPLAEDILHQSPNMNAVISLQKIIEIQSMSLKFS
HDAC4, sequence (P56524 whole entry, species assumed): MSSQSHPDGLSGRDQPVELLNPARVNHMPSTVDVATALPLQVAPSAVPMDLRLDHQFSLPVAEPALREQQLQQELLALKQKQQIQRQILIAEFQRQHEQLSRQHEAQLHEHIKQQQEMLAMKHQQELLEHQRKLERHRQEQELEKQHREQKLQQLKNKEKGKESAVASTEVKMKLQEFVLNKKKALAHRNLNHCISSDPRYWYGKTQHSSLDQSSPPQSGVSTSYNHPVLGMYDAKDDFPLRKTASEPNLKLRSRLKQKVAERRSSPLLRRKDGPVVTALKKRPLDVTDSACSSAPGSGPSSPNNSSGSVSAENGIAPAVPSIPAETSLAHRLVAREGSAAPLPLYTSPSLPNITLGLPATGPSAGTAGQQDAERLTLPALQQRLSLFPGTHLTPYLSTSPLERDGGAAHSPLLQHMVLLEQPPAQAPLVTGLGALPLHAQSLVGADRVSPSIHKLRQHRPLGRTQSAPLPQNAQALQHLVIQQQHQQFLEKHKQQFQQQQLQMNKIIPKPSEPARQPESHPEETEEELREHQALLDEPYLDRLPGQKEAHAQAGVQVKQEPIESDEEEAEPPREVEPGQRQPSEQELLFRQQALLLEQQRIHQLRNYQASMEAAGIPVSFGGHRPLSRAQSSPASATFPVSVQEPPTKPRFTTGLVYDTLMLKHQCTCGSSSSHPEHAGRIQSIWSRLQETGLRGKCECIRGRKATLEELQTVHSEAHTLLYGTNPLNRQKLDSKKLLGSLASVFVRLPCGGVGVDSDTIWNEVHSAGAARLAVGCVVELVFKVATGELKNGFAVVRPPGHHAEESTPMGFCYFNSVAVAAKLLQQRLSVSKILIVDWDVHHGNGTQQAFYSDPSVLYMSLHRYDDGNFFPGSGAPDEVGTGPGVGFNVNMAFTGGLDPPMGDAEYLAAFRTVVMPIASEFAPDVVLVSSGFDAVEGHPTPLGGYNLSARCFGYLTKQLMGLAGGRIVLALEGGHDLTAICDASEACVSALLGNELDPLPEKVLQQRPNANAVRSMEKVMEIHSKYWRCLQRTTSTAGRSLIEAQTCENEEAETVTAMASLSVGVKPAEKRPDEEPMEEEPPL

**Q.** With CC1CN(Cc2ccc(Nc3nccc(-c4ccc(C(=O)NO)cc4)n3)cc2F)CCO1 (racemic) [Compound I-8, 4-(2-((3-fluoro-4-((2-methylmorpholino)methyl)phenyl)amino)pyrimidin-4-yl)-N-hydroxybenzamide] as the molecule, how does the IC50 [1] read?
**A.** 11.1 µM

**Q.** And the IC50 [2]?
**A.** 22 µM

**Q.** And the “increase in acetyl-α-tubulin (ICC)” value [3]?
**A.** induce acetylation of α-tubulin in SH-SY5Y neuroblastoma cells in a dose-dependent manner

**Q.** And the “Steady state and central compartment volume of distribution” value ([4]; intravenous 1 mg/kg)?
**A.** very high

**Q.** What about the clearance ([4]; male, Swiss albino, mouse, plasma, iv, 1 mg/kg, G1, intravenous 1 mg/kg) of the same molecule?
**A.** ~328 mL/min/kg

**Q.** What about the Vd ([4]; male, Swiss albino, mouse, plasma, iv, 1 mg/kg, G1, intravenous 1 mg/kg, read-out: Vd) of the same molecule?
**A.** 171 L/kg

**Q.** What about the Vd ([4]; male, Swiss albino, mouse, plasma, iv, 1 mg/kg, G1, intravenous 1 mg/kg, read-out: Vss) of the same molecule?
**A.** 188 L/kg

**Q.** What about the MRT [4, 8] of the same molecule?
**A.** 3.28 h

**Q.** What about the half-life [4, 8] of the same molecule?
**A.** 6.03 h

**Q.** And the MRT [4, 9]?
**A.** 4.75 h

**Q.** And the Tmax [4, 9]?
**A.** 8 h

**Q.** What about the bioavailability ([4]; male, Swiss albino, mouse, plasma, G2, oral 5 mg/kg vs intravenous 1 mg/kg, read-out: % F (oral bioavailability)) of the same molecule?
**A.** 53%

**Q.** What about the AUC(0-inf) [4, 10] of the same molecule?
**A.** 50.8 ng·h/mL

**Q.** What about the AUC(0-t) [4, 10] of the same molecule?
**A.** 27.1 ng·h/mL

**Q.** What about the C0 [4, 10] of the same molecule?
**A.** 27.3 ng/mL

**Q.** And the AUC(0-t) [4, 11]?
**A.** 72.3 ng·h/mL

**Q.** And the Cmax [4, 11]?
**A.** 18.3 ng/mL

**Q.** What about the “lag phase in absorption” value ([4]; oral 5 mg/kg) of the same molecule?
**A.** no lag phase in absorption

**Q.** What about the systemic availability ([4]; oral 5 mg/kg) of the same molecule?
**A.** moderate to high systemic availability

**Q.** With C[C@@H]1CN(Cc2ccc(Nc3nccc(-c4ccc(C(=O)NO)cc4)n3)cc2F)CCO1 [Compound I-16, (R)-4-(2-((3-fluoro-4-((2-methylmorpholino)methyl)phenyl)amino)pyrimidin-4-yl)-N-hydroxybenzamide] as the molecule, how does the Body weight ([5]; Day 0) read?
**A.** 28.08 ± 0.84

**Q.** What about the Body weight ([5]; Day 4) of the same molecule?
**A.** 27.31 ± 0.52

**Q.** What about the Body weight ([5]; Day 7) of the same molecule?
**A.** 26.85 ± 0.66

**Q.** And the Body weight ([5]; Day 14)?
**A.** 28.27 ± 0.87

**Q.** And the Body weight ([5]; Day 21)?
**A.** 27.65 ± 0.86

**Q.** And the Body weight ([5]; Day 28)?
**A.** 28.23 ± 1.02

**Q.** And the Body weight ([5]; Day 35)?
**A.** 28.88 ± 0.55

**Q.** And the Body weight ([5]; Day 42)?
**A.** 28.35 ± 0.63

**Q.** What about the Body weight ([5]; Day 49) of the same molecule?
**A.** 28.76 ± 0.76

**Q.** And the Body weight ([5]; Day 56)?
**A.** 27.77 ± 0.67

**Q.** What about the Body weight ([5]; Day 63) of the same molecule?
**A.** 28.72 ± 1.03

**Q.** What about the Body weight ([5]; Day 70) of the same molecule?
**A.** 29.54 ± 0.72

**Q.** What about the Body weight ([5]; Day 77) of the same molecule?
**A.** 29.16 ± 0.71

**Q.** And the Body weight ([5]; Day 84)?
**A.** 29.14 ± 0.86

**Q.** And the Body weight ([5]; Day 91)?
**A.** 29.41 ± 0.78

**Q.** What about the “Morris Water Maze time spent in NW (Target Quadrant)” value [6] of the same molecule?
**A.** 15.49 ± 1.80 s

**Q.** And the “oral and brain uptake” value [7]?
**A.** promising oral, and brain up take
